Results reported in patent US20240342111A1, “ISOMER-SPECIFIC NEUROPROTECTIVE EFFECT OF NATURAL RESERVATROL” (priority 2021, published 2024).

Legend:
TyrRS [1] = test: Immunostaining of neuronal TyrRS under neurotoxic agents (NMDA, MPP+); type: cell-based, rat; conditions: neurotoxic agent alone (50 μM NMDA, 100 μM MPP+), 4 hours
TyrRS [2] = molecular target: T1, TyrRS (Homo sapiens, UniProt P54577); conditions: low dose ≤5 μM, HeLa cells; cited from earlier work
T1 construct: host or cells: HeLa cells
T1 sequence (P54577 whole entry): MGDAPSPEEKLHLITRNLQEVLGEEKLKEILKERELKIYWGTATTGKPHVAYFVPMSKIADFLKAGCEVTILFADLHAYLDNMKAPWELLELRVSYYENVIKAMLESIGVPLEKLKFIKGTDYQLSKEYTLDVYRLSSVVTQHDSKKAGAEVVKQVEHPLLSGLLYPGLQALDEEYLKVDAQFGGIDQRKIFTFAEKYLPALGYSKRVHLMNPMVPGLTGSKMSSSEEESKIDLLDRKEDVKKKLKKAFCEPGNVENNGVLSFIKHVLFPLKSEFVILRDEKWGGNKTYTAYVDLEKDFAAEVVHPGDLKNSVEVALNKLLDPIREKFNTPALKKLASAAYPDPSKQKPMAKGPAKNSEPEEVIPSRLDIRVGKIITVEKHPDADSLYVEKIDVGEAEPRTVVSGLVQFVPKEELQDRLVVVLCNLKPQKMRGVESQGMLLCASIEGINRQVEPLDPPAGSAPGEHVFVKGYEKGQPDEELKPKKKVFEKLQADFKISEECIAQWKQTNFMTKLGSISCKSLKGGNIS

[3] = system: ataxia telangiectasia mutated (ATM) kinase; conditions: low dose 5 μM; cited from earlier work
TyrRS [4] = molecular target: T2, TyrRS (Rattus norvegicus, UniProt Q4KM49); test: Immunostaining of neuronal TyrRS, RSV alone or in combination with Aβ; type: cell-based; conditions: Aβ 50 nM alone, 16 hours
T2 construct: Primary cortical neuron cultures were obtained from E18 Sprague Dawley rats' cortices; endogenous in cells; host or cells: rat primary cortical neurons (E18 Sprague Dawley)
T2 sequence (Q4KM49 1-528): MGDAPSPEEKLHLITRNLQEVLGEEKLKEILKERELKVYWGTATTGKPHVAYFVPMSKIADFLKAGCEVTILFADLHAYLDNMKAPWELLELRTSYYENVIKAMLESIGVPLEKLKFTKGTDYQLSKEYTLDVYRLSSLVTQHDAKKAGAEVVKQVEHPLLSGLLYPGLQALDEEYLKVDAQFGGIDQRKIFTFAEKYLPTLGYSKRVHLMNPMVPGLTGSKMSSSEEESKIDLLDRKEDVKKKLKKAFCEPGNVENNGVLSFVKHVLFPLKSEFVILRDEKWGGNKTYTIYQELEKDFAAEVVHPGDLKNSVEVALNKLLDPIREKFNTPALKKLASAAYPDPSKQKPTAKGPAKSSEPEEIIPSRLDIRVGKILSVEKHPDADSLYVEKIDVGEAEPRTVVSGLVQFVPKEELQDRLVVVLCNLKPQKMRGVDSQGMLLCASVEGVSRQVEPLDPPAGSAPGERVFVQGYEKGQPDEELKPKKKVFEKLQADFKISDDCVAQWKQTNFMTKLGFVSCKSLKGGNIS

TyrRS [5] = test: Immunoblot for TyrRS after treatment with Aβ42; type: cell-based, rat; conditions: different doses of Aβ42, 24 hours
Method: (§1) Representative immunostaining images (scale bar, 20 μm) for neuronal TyrRS (spectral images) after treatment with neurotoxic agents result in TyrRS downregulation. […] The protein level of TyrRS was quantified by measuring the average intensity of fluorescence staining with regions defined by MAP2 (neurite marker) staining across n=3 experiments using n≥20 neurons for quantification per treatment condition. […] Rat cortical neurons (DIV 9) were treated with different doses of Aβ42 for 24 hours. All graphical representations depict mean±SEM from n=3 experiments with statistical significance calculated using paired Student's t-test.
(§2) Cultured neurons (DIV 9-10) were washed once with cold 1×PBS and lysed in cell lysis buffer (20 mM Tris-HCl (pH 7.5), 150 mM NaCl, 1 mM Na2EDTA, 1 mM EGTA, 1% Triton, 2.5 mM sodium pyrophosphate, 1 mM beta-glycerophosphate, 1 mM Na3VO4, 1 μg/ml leupeptin supplemented with protease inhibitor). The lysates were centrifuged at 10,000 RPM for 15 minutes at 4° C. to separate the chromatin-bound and soluble fractions. Lysates were quantified using Bio-Rad Protein Assay, and an equal amount of protein was loaded onto a 4 to 12% gradient gel (NuPAGE-Invitrogen). […] Quantification for the western blots was done using ImageJ (Version 1.53c).

[6] = system: phenyl-tRNA synthetase beta (PheRSβ); test: Immunoblot for PheRSβ after treatment with Aβ42; type: cell-based, rat; conditions: different doses of Aβ42, 24 hours
Method: as §1, §2

pSer10-H3 = test: Immunostaining of pSer10-H3 (ADP-ribosylation dependent DNA repair marker); type: cell-based, rat; conditions: Aβ 50 nM, 24 hours
Description: Ac-K56-H3 is a marker of genomic stability, see Driscoll, R., Hudson, A. & Jackson, S. P. Yeast Rtt109 promotes genome stability by acetylating histone H3 on lysine 56. Science 315, 649-652, doi:10.1126/science.1135862 (2007), and DNA damage, see Tjeertes, J. V., Miller, K. M. & Jackson, S. P. Screen for DNA-damage-responsive histone modifications identifies H3K9Ac and H3K56Ac in human cells. EMBO J 28, 1878-1889, doi:10.1038/emboj.2009.119 (2009), and inhibition of PARP1 causes the downregulation of RAD51, see Hegan, D. C. et al. Inhibition of poly(ADP-ribose) polymerase down-regulates BRCA1 and RAD51 in a pathway mediated by E2F4 and p130. Proc Natl Acad Sci U S A 107, 2201-2206, doi:10.1073/pnas.0904783107 (2010), and induces neurotoxicity, see Diaz-Hernandez, J. I., Moncada, S., Bolanos, J. P. & Almeida, A. Poly(ADP-ribose) polymerase-1 protects neurons against apoptosis induced by oxidative stress. Cell Death Differ 14, 1211-1221, doi:10.1038/sj.cdd.4402117 (2007) and Midorikawa, R., Takei, Y. & Hirokawa, N. KIF4 motor regulates activity-dependent neuronal survival by suppressing PARP-1 enzymatic activity. Cell 125, 371-383, doi:10.1016/j.cell.2006.02.039 (2006). […] The western blot images of the protein levels of HPF1 was quantified using ImageJ.
Coverslips were then mounted using DAPI (4′,6-diamidino-2-phenylindole)-supplemented mounting medium, Prolong Gold Antifade (Invitrogen) imaged with Leica DMI6000 epifluorescent microscope at 63×magnification.

Compound: CN[C@H](CC(=O)O)C(=O)O [NMDA, N-Methyl-D-aspartate]
- neuronal protein levels of TyrRS (TyrRS [1]): downregulate the neuronal protein levels of TyrRS

Compound: C[n+]1ccc(-c2ccccc2)cc1 [MPP^+, 1-methyl-4-phenylpyridinium]
- neuronal protein levels of TyrRS (TyrRS [1]): downregulate the neuronal protein levels of TyrRS

Compound: Oc1ccc(C=Cc2cc(O)cc(O)c2)cc1 [RSV, Resveratrol]
- protein levels of TyrRS (TyrRS [2]): upregulated the protein levels of TyrRS
- ATM kinase activation [3]: activate

Compound: human amyloid β protein fragment 1-42 [Aβ]
- TyrRS protein levels (TyrRS [4]): downregulation
- TyrRS protein level (immunoblot) (TyrRS [5]): downregulates TyrRS in a dose-dependent manner
- PheRSβ protein level (immunoblot) [6]: did not downregulate
- pSer10-H3 levels (pSer10-H3): upregulation
